Source: patent US20060178293A1, “Cardiotonic polypeptides” (priority 2003, published 2006)

Test system: isolated cardiomyocytes derived from adult rats
Details: electrically stimulated; 0.35 μg/ml (FIG. 5)

## NCCc1ccc(O)c(O)c1 [inotropin]
  mechanical contractility (cell length changes), optically monitored: obvious increase in contractility
